One data set deals with hOAT3 (Homo sapiens, UniProt Q8TCC7). Briefly: Inhibition of hOAT3-mediated uptake of 3H-ES in hOAT3-MDCK cells. To be noted: hOAT3-MDCK cells. The class given is cell-based. An excerpt: (§1) Considering the relative exposure characteristics, GA and PCA were selected as PK-marker and Q-marker components of PCE in previous studies ([Ma et al., 2015]; [Ma et al., 2016]; [Li et al., 2021b]). In this study, we investigated the concentration-dependent inhibitions of GA and PCA on multiple transporters, including OAT1, OAT3, OCT2, MDR1, and BCRP. Stably expressing cell lines of hOAT1-MDCK, hOAT3-MDCK, hOCT2-S2, hMDR1-MDCK, hBCRP-MDCK, and their mock cells were obtained from Japan Fuji Biomedical Co., Ltd. The cells were maintained in DMEM (Sigma) supplemented with 10% FCS, 1% non-essential amino acids (Sigma), and 2% L-glutamine. The medium for the Transwell® plates (Corning Costar, Cambridge, MA, United States) was supplemented with 0.1% gentamicin. Membrane filters were placed in a 12 mm well with 1.5 and 0.5 ml of culture medium in the basolateral and apical compartments, respectively. Cells were cultured at 37°C in an atmosphere of 5% CO2. The inhibition experiments were adapted from previous methods with minor modifications ([Li et al., 2021a]; [2021b]).
Chain of hOAT3 (Q8TCC7 whole entry): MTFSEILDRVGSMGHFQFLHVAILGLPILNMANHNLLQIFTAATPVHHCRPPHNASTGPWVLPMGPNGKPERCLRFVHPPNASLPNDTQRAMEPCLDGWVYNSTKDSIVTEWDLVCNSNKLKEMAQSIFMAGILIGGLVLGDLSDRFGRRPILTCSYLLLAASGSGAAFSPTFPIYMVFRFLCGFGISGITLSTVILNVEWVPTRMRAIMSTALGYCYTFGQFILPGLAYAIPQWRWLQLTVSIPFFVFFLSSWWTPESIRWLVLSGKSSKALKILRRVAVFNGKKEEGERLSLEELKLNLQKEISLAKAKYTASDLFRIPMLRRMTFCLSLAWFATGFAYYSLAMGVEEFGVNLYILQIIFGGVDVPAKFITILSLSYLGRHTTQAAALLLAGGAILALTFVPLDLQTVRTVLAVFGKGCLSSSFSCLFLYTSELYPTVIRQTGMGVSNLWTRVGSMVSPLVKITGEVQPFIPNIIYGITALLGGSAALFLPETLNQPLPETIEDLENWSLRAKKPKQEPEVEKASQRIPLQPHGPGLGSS
Briefly, the hOAT1-MDCK, hOAT3-MDCK, and hOCT2-S2 cells were trypsinized and suspended in the culture medium to provide a density of 1.5 × 10^5 cells/ml. After incubating for 48 h, the cells were washed twice with preheated DPBS and then pre-incubated with DPBS for 10 min at 37°C. 500 µl of DPBS containing probe substrates was added to initiate the uptake in the presence or absence of GA, PCA or positive inhibitors. The hMDR1-MDCK and hBCRP-MDCK cells were suspended at a density of 4.0 × 10^5 cells/ml. After cultivation for 7 days, cells were washed twice and equilibrated for 30 min at 37°C with the pre-warmed HBSS buffer. […] The radioactive intensity of ^14C-PAH, ^3H-ES, and ^14C-TEA was measured using a Tri-Carb 2910TR scintillator (PerkinElmer, United States). Fluorescence was measured at 485 nm (excitation) and 546 nm (emission) for rhodamine 123, and 425 nm (excitation) and 528 nm (emission) for lucifer yellow. IC50 values were determined by employing GraphPad Prism 9.

For another data set, the target named is T1, hOCT2 (Homo sapiens, UniProt O15244).
T1 construct: host or cells: S2
T1 sequence (O15244 1-555): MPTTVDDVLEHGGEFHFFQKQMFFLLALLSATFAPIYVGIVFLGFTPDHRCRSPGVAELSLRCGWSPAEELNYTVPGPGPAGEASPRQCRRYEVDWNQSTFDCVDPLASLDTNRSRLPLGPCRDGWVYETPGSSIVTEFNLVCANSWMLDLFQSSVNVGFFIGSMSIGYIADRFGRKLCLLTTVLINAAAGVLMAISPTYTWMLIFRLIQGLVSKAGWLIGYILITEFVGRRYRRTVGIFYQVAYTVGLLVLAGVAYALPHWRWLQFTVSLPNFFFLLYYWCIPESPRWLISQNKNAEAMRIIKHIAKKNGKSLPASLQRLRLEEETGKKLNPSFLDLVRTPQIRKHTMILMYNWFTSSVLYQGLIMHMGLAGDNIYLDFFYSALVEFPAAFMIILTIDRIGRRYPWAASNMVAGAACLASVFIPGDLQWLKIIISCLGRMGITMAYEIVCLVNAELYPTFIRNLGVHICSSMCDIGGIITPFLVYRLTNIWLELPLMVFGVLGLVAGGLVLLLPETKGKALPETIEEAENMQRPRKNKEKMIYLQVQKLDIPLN
The data set is described as follows: Inhibition of hOCT2-mediated uptake of 14C-TEA in hOCT2-S2 cells. The class given is cell-based.
From the text: as §1, with “Membrane filters were placed in a 12 mm well with 1.5 and 0.5 ml of culture medium in the basolateral and apical compartments, respectively. Cells were cultured at 37°C in an atmosphere of 5% CO2. The inhibition experiments were adapted from previous methods with minor modifications ([Li et al., 2021a]; [2021b]).” left out
Briefly, the hOAT1-MDCK, hOAT3-MDCK, and hOCT2-S2 cells were trypsinized and suspended in the culture medium to provide a density of 1.5 × 10^5 cells/ml. […] The radioactive intensity of ^14C-PAH, ^3H-ES, and ^14C-TEA was measured using a Tri-Carb 2910TR scintillator (PerkinElmer, United States). Fluorescence was measured at 485 nm (excitation) and 546 nm (emission) for rhodamine 123, and 425 nm (excitation) and 528 nm (emission) for lucifer yellow. IC50 values were determined by employing GraphPad Prism 9.

The conditions of data set [1]: 1990, cited from earlier work.
The conditions of data set [2]: rats; approximately.
The subject of another data set is MDR1 mRNA. The data set is described as follows: MDR1 mRNA expression in Caco-2 cells (qRT-PCR). The class given is cell-based. To be noted: 48 h pretreatment, bosentan 20 μM, GA 50 μM, PCA 50 μM, PCE 100 mg/ml. (In general: Quantitative PCR measures a nucleic acid by following its amplification.)
A further data set concerns BCRP mRNA. Briefly: BCRP mRNA expression in Caco-2 cells (qRT-PCR). The class given is cell-based. To be noted: 48 h pretreatment, bosentan 20 μM, GA 50 μM, PCA 50 μM, PCE 100 mg/ml.

Procedure for BCRP mRNA: (§2) After the incubation period, cells were harvested from the Transwell inserts for RNA extraction. […] Real-time quantitative PCR (qRT-PCR) was performed on an ABI Prism 7900HT Sequence Detection System (Applied Biosystems, Foster City, CA, United States) for the analysis of MDR1 and BCRP genes. Primers of housekeeping gene β-actin was used as internal controls. […] The relative gene expression levels were determined using the comparative CT method (ΔΔCT method). The cut-off CT was set at 35 cycles for all analyses. An arbitrary classification system was assigned to the data, designating relative expression levels >2 as high mRNA expression, levels between 2 and 1 as moderate mRNA expression, levels between 1 and 0.1 as low mRNA expression and levels <0.1 as unexpressed.
Procedure for MDR1 mRNA: as §2

For `CN/C(=N/CCSCc1nc[nH]c1C)NC#N` [cimetidine], the “effect of positive inhibitor on hOAT3” value at hOAT3 is “Significant inhibitory effects”.

Consider `CO[C@H]1/C=C/O[C@@]2(C)Oc3c(C)c(O)c4c(O)c(c(/C=N/N5CCN(C)CC5)c(O)c4c3C2=O)NC(=O)/C(C)=C\C=C\[C@H](C)[C@H](O)[C@@H](C)[C@@H](O)[C@@H](C)[C@H](OC(C)=O)[C@@H]1C` [rifampicin], for which the “effect of positive inhibitor on hOCT2” value on hOCT2 is given as “Significant inhibitory effects”.

For the compound `O=C(O)c1cn(C2CC2)c2cc(N3CCNCC3)c(F)cc2c1=O` [CIP, ciprofloxacin], the “share of an intravenous dose eliminated into the intestine” value in data set [1] (ref Rohwedder et al., Haslam et al., 2011) is on record as “Approximately 20%”. In addition, the “excreted in unchanged form into the urine” value in data set [1] (ref Vance-Bryan et al.) was “Approximately 60%”. In addition, the “reduction of circulating CIP by concurrent use of PCE” value in data set [2] is 40%–50%.

For `COc1ccccc1Oc1c(NS(=O)(=O)c2ccc(C(C)(C)C)cc2)nc(-c2ncccn2)nc1OCCO` [bosentan, Bosentan], in the data set with MDR1 mRNA, the “increase of MDR1 (P-gp) mRNA expression” value was 7.36 fold. The “increase of BCRP mRNA expression” value in the data set on BCRP mRNA is listed as 4.31 fold.

The record behind these values is paper PMC9640990 (Frontiers in Pharmacology, 2022).
